Consider ten compounds from US4734418A, “Quinazoline compounds and antihypertensives” (priority 1984, dated 1988).

The first series relates to Spontaneously Hypertensive Rats. Put plainly: Test 1: antihypertensive effects (systolic tail artery blood pressure) and heart rate in spontaneously hypertensive rats, oral. The class given is in vivo, rat (male, SHR). The note with it: Rattus norvegicus; SHR, oral 1 mg/Kg, 1 hour; read-out: Antihypertensive effects, change (%) in blood pressure, 1 hour later. As for the experimental part: The antihypertensive effects of the certain compounds of this invention were studied in the following manner.
Among male, spontaneously hypertensive rats (SHRs) of 20 weeks of age or older and 350-430 g heavy all of which had developed hypertension, those having systolic blood pressures of 180 mmHg or higher were used in groups, each of which was constituted of 3-4 of the rats. […] Besides, heart rates were also measured simultaneously. The compounds were each dissolved or suspended in a 0.5% methylcellulose solution and then administered orally.
*All administered orally at a dosage of 1 mg/Kg except for the compounds
**Each percent change in heart rate is indicated by the corresponding
With `COc1cc2nc(N3CCN(c4ncc(C(N)=O)c(C)n4)CC3)nc(N)c2cc1OC` [Example 40], the change in vivo at 1 mg/kg is -1.4%.
Same read-out and setting: to `COc1cc2nc(N3CCN(c4ncc(C#N)c(O)n4)CC3)nc(N)c2cc1OC` [Example 51] belongs 8.6%; to `COc1cc2nc(N3CCN(c4ncc(C(=O)NN(C)C)c(C)n4)CC3)nc(N)c2cc1OC` [Example 47], -3.5%; to `CCCN1Cc2nc(N3CCN(c4nc(N)c5cc(OC)c(OC)cc5n4)CC3)ncc2C1=O` [Example 26], -8.8%.
Same read-out and setting: to `COc1cc2nc(N3CCN(c4ncc5c(=O)n(CCO)ccc5n4)CC3)nc(N)c2cc1OC` [Example 7] belongs 1.5%; to `COc1cc2nc(N3CCN(c4nc(N(C)C)c5cc(OC)c(OC)cc5n4)CC3)nc(N)c2cc1OC` [Example 73], -0.5%; to `CCn1cc(Cc2ccccc2)c2nc(N3CCN(c4nc(N)c5cc(OC)c(OC)cc5n4)CC3)ncc2c1=O` [Example 15], -2.9%.
Consider `CCOC(=O)c1cc2nc(N3CCN(c4nc(N)c5cc(OC)c(OC)cc5n4)CC3)ncc2c(=O)n1CC` [Example 18], for which the change in vivo at 1 mg/kg came out at 0%.
On the same count and under the same terms, to `COc1cc2nc(N3CCN(c4ncc(C(=O)NCc5ccccc5)c(C)n4)CC3)nc(N)c2cc1OC` [Example 44] belongs 9.1%; to `CCOC(=O)c1cnc(N2CCN(c3nc(N)c4cc(OC)c(OC)cc4n3)CC2)nc1NC` [Example 55], -6.5%.

Staying with this series, now noted: Rattus norvegicus; SHR, oral 1 mg/Kg, 3 hours; read-out: Antihypertensive effects, change (%) in blood pressure, 3 hours later.
As for `COc1cc2nc(N3CCN(c4ncc(C(N)=O)c(C)n4)CC3)nc(N)c2cc1OC` [Example 40], the change in vivo at 1 mg/kg was -15.9%.
The same measure, in the same setting: next, `COc1cc2nc(N3CCN(c4ncc(C#N)c(O)n4)CC3)nc(N)c2cc1OC` [Example 51]: 0%; `COc1cc2nc(N3CCN(c4ncc(C(=O)NN(C)C)c(C)n4)CC3)nc(N)c2cc1OC` [Example 47]: -9%; `CCCN1Cc2nc(N3CCN(c4nc(N)c5cc(OC)c(OC)cc5n4)CC3)ncc2C1=O` [Example 26]: -15.2%.
On the same count and under the same terms, to `COc1cc2nc(N3CCN(c4ncc5c(=O)n(CCO)ccc5n4)CC3)nc(N)c2cc1OC` [Example 7] belongs -4.4%.
Consider `COc1cc2nc(N3CCN(c4nc(N(C)C)c5cc(OC)c(OC)cc5n4)CC3)nc(N)c2cc1OC` [Example 73], for which the change in vivo at 1 mg/kg came to 0%.
The same measure, in the same setting: to `CCn1cc(Cc2ccccc2)c2nc(N3CCN(c4nc(N)c5cc(OC)c(OC)cc5n4)CC3)ncc2c1=O` [Example 15] belongs -7.7%.
On the same count and under the same terms, to `CCOC(=O)c1cc2nc(N3CCN(c4nc(N)c5cc(OC)c(OC)cc5n4)CC3)ncc2c(=O)n1CC` [Example 18] belongs -3.9%; to `COc1cc2nc(N3CCN(c4ncc(C(=O)NCc5ccccc5)c(C)n4)CC3)nc(N)c2cc1OC` [Example 44], 0%.
Same read-out and setting: to `CCOC(=O)c1cnc(N2CCN(c3nc(N)c4cc(OC)c(OC)cc4n3)CC2)nc1NC` [Example 55] belongs -21.9%.

Staying with this series, now noted: Rattus norvegicus; SHR, oral 1 mg/Kg, 6 hours; read-out: Antihypertensive effects, change (%) in blood pressure, 6 hours later.
As to `COc1cc2nc(N3CCN(c4ncc(C(N)=O)c(C)n4)CC3)nc(N)c2cc1OC` [Example 40], the change in vivo at 1 mg/kg is -18.4%.
On the same count and under the same terms, to `COc1cc2nc(N3CCN(c4ncc(C#N)c(O)n4)CC3)nc(N)c2cc1OC` [Example 51] belongs -4.1%.
The same measure, in the same setting: to `COc1cc2nc(N3CCN(c4ncc(C(=O)NN(C)C)c(C)n4)CC3)nc(N)c2cc1OC` [Example 47] belongs -12.5%; to `CCCN1Cc2nc(N3CCN(c4nc(N)c5cc(OC)c(OC)cc5n4)CC3)ncc2C1=O` [Example 26], -21.6%.
Take `COc1cc2nc(N3CCN(c4ncc5c(=O)n(CCO)ccc5n4)CC3)nc(N)c2cc1OC` [Example 7]: the change in vivo at 1 mg/kg was -9.3%.
Still for that read-out and setting: to `COc1cc2nc(N3CCN(c4nc(N(C)C)c5cc(OC)c(OC)cc5n4)CC3)nc(N)c2cc1OC` [Example 73] belongs -7%.
Still for that read-out and setting: to `CCn1cc(Cc2ccccc2)c2nc(N3CCN(c4nc(N)c5cc(OC)c(OC)cc5n4)CC3)ncc2c1=O` [Example 15] belongs -12%; to `CCOC(=O)c1cc2nc(N3CCN(c4nc(N)c5cc(OC)c(OC)cc5n4)CC3)ncc2c(=O)n1CC` [Example 18], -9.8%.
Regarding `COc1cc2nc(N3CCN(c4ncc(C(=O)NCc5ccccc5)c(C)n4)CC3)nc(N)c2cc1OC` [Example 44], the change in vivo at 1 mg/kg was -4%.
The same measure, in the same setting: next, `CCOC(=O)c1cnc(N2CCN(c3nc(N)c4cc(OC)c(OC)cc4n3)CC2)nc1NC` [Example 55]: -29.9%.

The series is the same for the next values; noted with them: Rattus norvegicus; SHR, oral 1 mg/Kg, 24 hours; read-out: Antihypertensive effects, change (%) in blood pressure, 24 hours later.
`COc1cc2nc(N3CCN(c4ncc(C(N)=O)c(C)n4)CC3)nc(N)c2cc1OC` [Example 40]: the change in vivo at 1 mg/kg is -8.2%.
On to `COc1cc2nc(N3CCN(c4ncc(C#N)c(O)n4)CC3)nc(N)c2cc1OC` [Example 51], for which the change in vivo at 1 mg/kg was -2.5%.
Same read-out and setting: next, `COc1cc2nc(N3CCN(c4ncc(C(=O)NN(C)C)c(C)n4)CC3)nc(N)c2cc1OC` [Example 47]: -2.5%; `CCCN1Cc2nc(N3CCN(c4nc(N)c5cc(OC)c(OC)cc5n4)CC3)ncc2C1=O` [Example 26]: -4.9%; `COc1cc2nc(N3CCN(c4ncc5c(=O)n(CCO)ccc5n4)CC3)nc(N)c2cc1OC` [Example 7]: -2.9%.
The same measure, in the same setting: next, `COc1cc2nc(N3CCN(c4nc(N(C)C)c5cc(OC)c(OC)cc5n4)CC3)nc(N)c2cc1OC` [Example 73]: -8%; `CCn1cc(Cc2ccccc2)c2nc(N3CCN(c4nc(N)c5cc(OC)c(OC)cc5n4)CC3)ncc2c1=O` [Example 15]: -7.7%.
Same read-out and setting: to `CCOC(=O)c1cc2nc(N3CCN(c4nc(N)c5cc(OC)c(OC)cc5n4)CC3)ncc2c(=O)n1CC` [Example 18] belongs -3.9%; to `COc1cc2nc(N3CCN(c4ncc(C(=O)NCc5ccccc5)c(C)n4)CC3)nc(N)c2cc1OC` [Example 44], 0%.
As to `CCOC(=O)c1cnc(N2CCN(c3nc(N)c4cc(OC)c(OC)cc4n3)CC2)nc1NC` [Example 55], the change in vivo at 1 mg/kg was -7.5%.

The same series, now with this note: SHR, oral 1 mg/Kg, maximum value.
As for `COc1cc2nc(N3CCN(c4ncc(C(N)=O)c(C)n4)CC3)nc(N)c2cc1OC` [Example 40], the “Change (%) in heart rate” value is reported as “+5.8%”.
The same measure, in the same setting: to `COc1cc2nc(N3CCN(c4ncc(C#N)c(O)n4)CC3)nc(N)c2cc1OC` [Example 51] belongs “+3.0%”.
Same read-out and setting: next, `COc1cc2nc(N3CCN(c4ncc(C(=O)NN(C)C)c(C)n4)CC3)nc(N)c2cc1OC` [Example 47]: “+6.3%”; `CCCN1Cc2nc(N3CCN(c4nc(N)c5cc(OC)c(OC)cc5n4)CC3)ncc2C1=O` [Example 26]: “+9.8%”.
With `COc1cc2nc(N3CCN(c4ncc5c(=O)n(CCO)ccc5n4)CC3)nc(N)c2cc1OC` [Example 7], the “Change (%) in heart rate” value was “+2.8%”.
The same measure, in the same setting: to `COc1cc2nc(N3CCN(c4nc(N(C)C)c5cc(OC)c(OC)cc5n4)CC3)nc(N)c2cc1OC` [Example 73] belongs “+4.3%”; to `CCn1cc(Cc2ccccc2)c2nc(N3CCN(c4nc(N)c5cc(OC)c(OC)cc5n4)CC3)ncc2c1=O` [Example 15], “+3.7%”; to `CCOC(=O)c1cc2nc(N3CCN(c4nc(N)c5cc(OC)c(OC)cc5n4)CC3)ncc2c(=O)n1CC` [Example 18], “+11.1%”.
Still for that read-out and setting: next, `COc1cc2nc(N3CCN(c4ncc(C(=O)NCc5ccccc5)c(C)n4)CC3)nc(N)c2cc1OC` [Example 44]: “+7.9%”; `CCOC(=O)c1cnc(N2CCN(c3nc(N)c4cc(OC)c(OC)cc4n3)CC2)nc1NC` [Example 55]: “+7.0%”.
